Source: ChEMBL document CHEMBL1152152, “Quantitative structure-activity relationship of phenoxyphenyl-methanamine compounds with 5HT2A, SERT, and hERG activities” (Bioorg Med Chem Lett, 2008)

Key:
[1] = molecular target: Sodium-dependent serotonin transporter (Homo sapiens, UniProt P31645); assay: Inhibition of serotonin reuptake at SERT
[2] = molecular target: 5-hydroxytryptamine receptor 2A (Homo sapiens, UniProt P28223); assay: Displacement of [3H]ketanserin from 5HT2A receptor
[3] = molecular target: Voltage-gated inwardly rectifying potassium channel KCNH2 (Homo sapiens, UniProt Q12809); assay: Displacement of [3H]dofetilide from human ERG channel
Chain of Voltage-gated inwardly rectifying potassium channel KCNH2 (Q12809 whole entry): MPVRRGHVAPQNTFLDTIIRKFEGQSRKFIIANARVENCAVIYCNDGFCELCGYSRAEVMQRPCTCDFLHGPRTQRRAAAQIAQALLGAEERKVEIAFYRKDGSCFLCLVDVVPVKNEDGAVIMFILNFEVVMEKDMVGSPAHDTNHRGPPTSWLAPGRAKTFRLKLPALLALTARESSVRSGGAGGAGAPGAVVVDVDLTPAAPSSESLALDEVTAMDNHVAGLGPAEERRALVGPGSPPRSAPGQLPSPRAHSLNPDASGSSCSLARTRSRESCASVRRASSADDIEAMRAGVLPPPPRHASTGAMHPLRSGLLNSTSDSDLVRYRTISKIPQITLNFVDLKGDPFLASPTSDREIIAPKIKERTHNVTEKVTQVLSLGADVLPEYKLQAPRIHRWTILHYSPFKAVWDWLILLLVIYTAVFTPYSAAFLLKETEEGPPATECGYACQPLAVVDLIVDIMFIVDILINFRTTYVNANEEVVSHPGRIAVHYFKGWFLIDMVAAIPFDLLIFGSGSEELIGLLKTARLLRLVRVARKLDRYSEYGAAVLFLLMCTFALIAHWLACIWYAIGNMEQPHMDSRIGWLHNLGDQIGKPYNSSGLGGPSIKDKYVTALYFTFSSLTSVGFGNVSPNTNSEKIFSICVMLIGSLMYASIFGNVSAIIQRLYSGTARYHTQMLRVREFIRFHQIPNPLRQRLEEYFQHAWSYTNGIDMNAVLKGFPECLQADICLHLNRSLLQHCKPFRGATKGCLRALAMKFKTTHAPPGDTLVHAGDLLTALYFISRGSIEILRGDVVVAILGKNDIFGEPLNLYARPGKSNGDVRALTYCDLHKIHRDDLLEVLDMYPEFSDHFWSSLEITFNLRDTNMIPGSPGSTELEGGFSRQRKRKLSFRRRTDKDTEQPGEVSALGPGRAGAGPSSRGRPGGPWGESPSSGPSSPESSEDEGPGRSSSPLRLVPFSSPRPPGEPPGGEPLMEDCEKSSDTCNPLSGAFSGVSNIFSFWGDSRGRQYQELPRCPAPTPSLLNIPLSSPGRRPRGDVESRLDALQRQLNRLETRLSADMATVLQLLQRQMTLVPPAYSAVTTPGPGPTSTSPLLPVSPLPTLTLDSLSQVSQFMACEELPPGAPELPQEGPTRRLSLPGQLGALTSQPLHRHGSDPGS

Chain of 5-hydroxytryptamine receptor 2A (P28223 whole entry): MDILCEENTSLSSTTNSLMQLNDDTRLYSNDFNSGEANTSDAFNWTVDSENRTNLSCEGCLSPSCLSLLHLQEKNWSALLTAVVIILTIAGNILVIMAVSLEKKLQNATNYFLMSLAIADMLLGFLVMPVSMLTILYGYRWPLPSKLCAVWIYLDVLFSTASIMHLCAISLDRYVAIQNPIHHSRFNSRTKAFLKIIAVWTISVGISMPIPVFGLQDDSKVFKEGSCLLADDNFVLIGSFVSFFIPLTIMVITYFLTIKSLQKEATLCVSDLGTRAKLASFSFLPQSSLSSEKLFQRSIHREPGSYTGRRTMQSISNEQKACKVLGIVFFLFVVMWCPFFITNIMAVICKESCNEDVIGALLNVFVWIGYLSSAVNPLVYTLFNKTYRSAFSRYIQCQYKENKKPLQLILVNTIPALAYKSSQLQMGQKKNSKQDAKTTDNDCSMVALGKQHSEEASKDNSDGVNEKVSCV
Chain of Sodium-dependent serotonin transporter (P31645 whole entry): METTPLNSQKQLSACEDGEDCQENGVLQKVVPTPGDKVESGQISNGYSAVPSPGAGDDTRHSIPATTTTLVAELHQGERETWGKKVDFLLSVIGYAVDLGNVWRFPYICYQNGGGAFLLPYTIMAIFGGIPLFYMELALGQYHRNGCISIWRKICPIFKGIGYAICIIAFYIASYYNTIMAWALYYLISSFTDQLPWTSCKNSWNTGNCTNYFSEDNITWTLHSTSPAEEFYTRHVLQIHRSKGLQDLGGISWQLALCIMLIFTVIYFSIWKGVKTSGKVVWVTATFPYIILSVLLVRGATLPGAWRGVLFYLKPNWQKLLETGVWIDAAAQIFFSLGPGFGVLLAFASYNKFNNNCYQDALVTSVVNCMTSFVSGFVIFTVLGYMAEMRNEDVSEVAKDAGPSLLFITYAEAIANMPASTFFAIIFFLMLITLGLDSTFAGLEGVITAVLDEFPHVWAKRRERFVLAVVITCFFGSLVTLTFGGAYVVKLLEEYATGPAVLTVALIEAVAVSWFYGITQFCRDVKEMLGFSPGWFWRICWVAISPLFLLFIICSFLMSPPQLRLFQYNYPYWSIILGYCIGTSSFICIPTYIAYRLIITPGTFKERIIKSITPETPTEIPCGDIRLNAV

Compound	IC50 [1]	IC50 [2]	IC50 [3]
CN(C)Cc1ccccc1Oc1ccc(Cl)cc1	1.68 nM	1980 nM	
CNCc1cc(F)ccc1Oc1ccc(F)c(Cl)c1	37.5 nM	575 nM	
CN(C)Cc1ccccc1Oc1ccc(Cl)c(Cl)c1	0.35 nM	144 nM	
CNC(C)c1cc(F)ccc1Oc1ccc(Cl)cc1 (configuration not stated)	34.8 nM	206 nM	
CNCc1ccc(Cl)cc1Oc1ccc(Cl)c(F)c1	88 nM	58.1 nM	1230 nM
CN(C)Cc1ccccc1Oc1ccc(F)c(F)c1	34.4 nM	1000 nM	
CNCc1ccc(Cl)cc1Oc1ccc(C)cc1	17 nM	1.18 nM	
CNCc1cc(F)ccc1Oc1ccc(Cl)c(F)c1	19.3 nM	2010 nM	
CNCc1ccc(Cl)cc1Oc1cccc(Cl)c1	77.5 nM	48.6 nM	2110 nM
CCc1cc(Oc2cc(Cl)ccc2CNC)ccc1Cl	20.7 nM	47.1 nM	1150 nM
CSc1ccc(Oc2ccccc2CN(C)C)cc1	1 nM	458 nM	3020 nM
CNCc1cc(C#N)ccc1Oc1ccc(Cl)c(Cl)c1	2.5 nM	3180 nM	4560 nM
CNCc1ccc(Br)cc1Oc1ccc(Cl)c(Cl)c1	5.1 nM	66.8 nM	
CN(C)Cc1cc(CC(N)=O)ccc1Oc1ccc(Cl)c(Cl)c1	2.43 nM	2240 nM	
CNCc1ccc(Cl)cc1Oc1ccc(C)c(Cl)c1	4.19 nM	9.11 nM	
CNCc1ccc(Cl)cc1Oc1ccc(Cl)c(C)c1	4.27 nM	9.04 nM	
CNC(C)c1cc(C(F)(F)F)ccc1Oc1ccc(Cl)c(Cl)c1 (configuration not stated)	61.2 nM	291 nM	3030 nM
CNC(C)c1cc(C)ccc1Oc1ccc(Cl)c(Cl)c1 (configuration not stated)	39.6 nM	172 nM	
CNCc1ccc(Cl)cc1Oc1ccc(F)c(Cl)c1	25.4 nM	60.9 nM	
CNCc1ccc(Cl)cc1Oc1ccc(F)c(C(F)(F)F)c1	9.71 nM	48.9 nM	873 nM
Cc1ccc(Oc2ccccc2CN(C)C)cc1	3.46 nM	74.2 nM	
CNCc1cc(F)ccc1Oc1ccc(-c2ccccc2)cc1	28.9 nM	378 nM	

Compound	IC50 [1]	IC50 [2]	IC50 [3]
CNCc1cc(F)c(OC)cc1Oc1ccc(Cl)c(Cl)c1	4.51 nM	74.6 nM	
CNCc1ccc(Cl)cc1Oc1ccc(F)c(C)c1	31.2 nM	32.9 nM	
COc1ccc(CN(C)C)c(Oc2ccc(Cl)c(Cl)c2)c1	3.61 nM	36.8 nM	
CNCc1cc(S(=O)(=O)NC)ccc1Oc1ccc(Cl)c(Cl)c1	9.35 nM	5570 nM	4800 nM
CNCc1cc(C)c(C)cc1Oc1ccc(Cl)c(Cl)c1	8.9 nM	79.4 nM	1480 nM
CNCc1cc(C(N)=O)ccc1Oc1ccc(Cl)c(Cl)c1	3.78 nM	1550 nM	5440 nM
Cc1ccc(Oc2ccc(Cl)c(Cl)c2)c(CN(C)C)c1	2.36 nM	376 nM	3390 nM
CNCc1cc(F)c(Cl)cc1Oc1ccc(Cl)c(Cl)c1	4.37 nM	230 nM	
CNC(C)c1ccc(Cl)cc1Oc1ccc(C)cc1 (configuration not stated)	187 nM	3.54 nM	3690 nM
CNCc1cc(Cl)ccc1Oc1ccc(C)c(C)c1	9.81 nM	51 nM	
CNCc1cc(Cl)ccc1Oc1ccc(Cl)cc1	7.49 nM	90.2 nM	
CNCc1ccc(Cl)cc1Oc1ccc(Cl)cc1	9.2 nM	6.59 nM	
CNCc1cc(C(F)(F)F)ccc1Oc1ccc(C)cc1	74.7 nM	34.7 nM	10400 nM
CNCc1cc(F)ccc1Oc1ccccc1	381 nM	670 nM	
CNCc1ccc(Cl)cc1Oc1ccc(C)c(C)c1	4.67 nM	3.42 nM	
CC(c1ccccc1Oc1ccc(Cl)c(Cl)c1)N(C)C (configuration not stated)	3.27 nM	87.8 nM	
CNCc1cc(OC)c(OC)cc1Oc1ccc(Cl)c(Cl)c1	14.1 nM	249 nM	
CNC(C)c1ccccc1Oc1ccc(Cl)c(Cl)c1 (configuration not stated)	23 nM	379 nM	
CNC(C)c1ccccc1Oc1ccc(Cl)cc1 (configuration not stated)	56.8 nM	179 nM	
CNCc1ccc(F)cc1Oc1ccc(Cl)c(Cl)c1	36 nM	651 nM	
CNCc1cc(F)ccc1Oc1ccc(C)c(C)c1	7.55 nM	52.4 nM	
CNCc1cc(F)ccc1Oc1ccc(Cl)c(Cl)c1	3.28 nM	206 nM	

Compound	IC50 [1]	IC50 [2]	IC50 [3]
CN(C)Cc1ccc(C(F)(F)F)cc1Oc1ccc(Cl)c(Cl)c1	17.1 nM	41.5 nM	
CNCc1ccccc1Oc1ccc(C)c(C)c1	12.8 nM	66.4 nM	
CNCc1ccccc1Oc1ccc(Cl)cc1	13.9 nM	1050 nM	
CNCc1ccc(C(F)(F)F)cc1Oc1ccc(Cl)c(Cl)c1	29.6 nM	362 nM	
CNCc1ccc(Cl)cc1Oc1ccc(Cl)c(Cl)c1	6.22 nM	89.5 nM	
CNCc1cc(F)ccc1Oc1ccc(Cl)cc1	9.47 nM	495 nM	
CNCc1cc(Br)ccc1Oc1ccc(Cl)c(Cl)c1	4.8 nM	787 nM	
CNC(C)c1cc(F)ccc1Oc1ccc(Cl)c(Cl)c1 (configuration not stated)	8.09 nM	301 nM	
CN(C)Cc1cc(N)ccc1Oc1ccc(Cl)c(Cl)c1	4.99 nM	724 nM	
CNCc1ccccc1Oc1ccc(Cl)c(Cl)c1	4.02 nM	721 nM	
CNCc1ccc(OC)cc1Oc1ccc(Cl)c(Cl)c1	8.72 nM	105 nM	
CNCc1cc(Cl)ccc1Oc1ccc(Cl)c(Cl)c1	5.73 nM	429 nM	
CNCc1ccc(C(F)(F)F)cc1Oc1ccc(Cl)cc1	31.1 nM	324 nM	5110 nM
CCc1cc(Oc2ccc(F)cc2CNC)ccc1Cl	5.53 nM	274 nM	
CNCc1cc(C(F)(F)F)ccc1Oc1ccc(Cl)c(Cl)c1	21.8 nM	1800 nM	
CNC(C)c1ccccc1Oc1ccc(C)cc1 (configuration not stated)	94.1 nM	55.1 nM	
CNCc1ccc(C#N)cc1Oc1ccc(Cl)c(Cl)c1		315 nM	1310 nM
CNC(C)c1ccc(Cl)cc1Oc1ccc(C)c(C)c1 (configuration not stated)	115 nM	6.82 nM	
CNC(C)c1ccc(OC)cc1Oc1ccc(Cl)c(Cl)c1 (configuration not stated)	41.2 nM	88 nM	
CNCc1cc(OC)ccc1Oc1ccc(Cl)c(Cl)c1	3.77 nM	1450 nM	
